Values quoted from earlier work, collected in patent US12116550B2, “Process of making a liquid conditioning composition” (The Procter & Gamble Company, priority 2020, dated 2024).

conditions: nonionic surfactants of Table A, value reported for the trade product

| Reported HLB | Substance |
| --- | --- |
| 4.7 | Sorbitan isostearate [Span 120] |
| 4.3 | Sorbitan monooleate [Span 80] |
| 6.7 | Sorbitan monopalmitate [Span 40] |
| 4.7 | Sorbitan monostearate [Span 60] |
